Reference: US11577248B2, “Biological membrane-based sensor” (McMaster University, priority 2017, dated 2023)

Assays:
[1] = tested on: human red blood cell membranes; assay: HBLOC sensor: cyclic voltammetry with ferricyanide on RBC membrane-coated nanostructured gold electrodes; conditions: ferricyanide redox indicator, FIG. 10
Text: Inventors have developed a method which isolates human red blood cells on a silicon chip for use as a safe and quantitative test for hemolytic bacteria. To develop our human blood cells on a chip, a sample of human blood is exposed to a hypotonic solution which causes the RBC's to burst and empty their contents. A series of sonication and washing steps are then applied to isolate only the RBC membrane, and to remove all hemoglobin and other contaminants. The result is a solution of empty membrane sacks known as RBC “ghosts”. This solution is then applied to sensors and allowed to slowly dry, leaving behind stacked sheets of RBC membrane. The sensors use nanostructured gold electrodes, functionalized for the application of the RBC membranes and maximizing the surface area for increased sensitivity of the tests. The coated electrodes are then used as part of a 3-electrode electrochemical cell, where any damage to the cell membrane allows a redox-indicator in solution to access the electrode surface. Under cyclic voltammetry or chronoamperometry measurements the reduction/oxidation of the indicator molecule gives rise to a current that is proportional to the amount of membrane damage. […] Membrane damage was quantitatively measured using ferricyanide as the redox indicator and cyclic voltammetry. […]

[2] = tested on: RBC membranes; assay: X-ray diffraction of RBC/aspirin complexes (multi-lamellar RBC membranes on silicon wafers); parameters: species or system human
Text: X-ray scattering data was obtained using the Biological Large Angle Diffraction Experiment (BLADE) in the Laboratory for Membrane and Protein Dynamics at McMaster University. BLADE uses a 9 kW (45 kV, 200 mA) CuKα rotating anode at a wavelength of 1.5418 Å. Both source and detector are mounted on movable arms such that the membranes stay horizontal during the measurements. Focusing multi-layer optics provides a high intensity parallel beam with monochromatic X-ray intensities up to 10^10 counts/(mm^2·s). This beam geometry provides optimal illumination of the solid supported membrane samples to maximize the scattering signal. Note that there is no risk of sample damage using this in-house technique because of the large beam size and relatively low intensity of the X-ray beam as compared to synchrotron sources. The result of an X-ray experiment is a 2-dimensional intensity map of a large area of the reciprocal space, as sketched in FIG. 5. The corresponding real-space length scales are determined by d=2π/ ? and cover length scales from about 2.5 to 100 Å. All scans were measured at 28° C. and 50% relative humidity (RH) hydration. As depicted in FIG. 5a), the wafers were oriented in the X-ray diffractometer, such that the q∥-axis probed lateral structure, parallel to the wafer surface, and the perpendicular axis, qz, probed out-of-plane structure, perpendicular to the substrate. The out-of-plane structure of the membrane was determined using specular reflectivity. The relative electron density, ρ(z), is approximated by a 1-dimensional Fourier analysis. [formula] N is the highest order of the Bragg peaks observed in the experiment. The integrated peak intensities, I, are multiplied by q, to receive the form factors, F(q,). The bilayer form factor F(qz), which is in general a complex quantity, is real-valued in the case of centro-symmetry. The phase problem of crystallography, therefore, simplifies to the sign problem F(qz)=±|F(qz)| and the phases, ν, can only take the values±1. The phases, ν, are needed to reconstruct the electron density profile from the scattering data following Eq. (1). When the membrane form factor F(qz) is measured at several qz values, a continuous function, T(qz), which is proportional to F(qz), can be fitted to the data. Once an analytical expression for T(qz) has been determined from fitting the experimental peak intensities, the phases ν, can be assessed from T(qz). The phase array ν, =[−1−1 1−1 1] was used for all samples. The electron densities determined by Eq. (1) are on a relative scale. In order to compare the electron densities in FIGS. 6c) and 7c), ρ in the membrane centre at z=0 was set to 0 and the electron density at the boundaries (z values between 25 and 30 Å depending on the lamellar spacing), which probe the water layer between the stacked membranes, were scaled to the electron density of water of ρ=0.33 e^−/Å^3. In order to prepare complexes of RBC membranes containing increasing amounts of aspirin, a solution of 9 mg/mL acetylsalicylic acid (molecular weight 180 g/mol) in 18.2 MΩ·cm water was prepared. 2 μL, 3 μL, 4 μL, 5 μL, and 6 μL of this solution were added to 100 μL of the final ghosts solution resulting in acetylsalicylic acid concentrations of 1 mM, 1.5 mM, 2 mM, 2.5 mM and 3 mM. The resulting solutions were applied onto silicon wafers and dried slowly and incubated for 5 days following the above protocol. The in-plane peaks are the result of a hexagonal packing of the lipid tails in the hydrophobic membrane core (planar group p6). The distance between two acyl tails is determined to be α=4π/(√3q), where q∥ is the position of the corresponding correlation peak. The area per lipid chain is obtained to AT=(√3/2) α^2 Lipid tail distances in lo and ld domains and lipid tail areas are listed in Table 1. […]

Compound	membrane damage: reduction and oxidation peak currents [1]	ASA concentration at which lamellar spacing and membrane thickness of lo and ld domains coincide ([2]; 0-3 mM ASA series) [mM]	effect on lamellar spacing and membrane thickness of ld lipid domains ([2]; 1-3 mM ASA)	overall lamellar spacing of the RBC membranes ([2]; ASA concentration of 2.5 mM) [Å]	overall membrane thickness ([2]; ASA concentration of 2.5 mM) [Å]	domain preference of the interaction with RBC membranes ([2]; electron densities of lo and ld domains, 1 mM ASA)	effect on lipid spacing in the ld domain ([2]; in presence of aspirin)	distance between lipids alo in lo domains ([2]; in presence of aspirin, increase from 4.69 Å in pure RBC membranes) [Å]	lipid tail area in lo domains ([2]; in presence of aspirin, increase from 19.04 Å^2 in pure RBC membranes) [Å^2]	effect on lipid domain sizes ([2]; increasing ASA content)	effect on peptide domain size ([2]; increasing ASA content)	location of aspirin in the membrane (|z| of increased electron density, head group region) ([2]; lo lipid domains, RBC membranes + 1 mM ASA vs pure RBC membrane) [Å]
CCCCCCCCCCCCOS(=O)(=O)[O-].[Na+] [SDS, sodium dodecyl sulfate]	increases in the reduction and oxidation peak currents	–	–	–	–	–	–	–	–	–	–	–
CC(=O)Oc1ccccc1C(=O)O [aspirin, acetylsalicylic acid]	–	2.5	not affected	53.4	41.8	preferably interacts with lo regions	unchanged	4.85	20.37	approximately independent of aspirin concentration	slight increase in peptide domain size	~22.8
